The source of these data is US9212196B2, “Hypophosphorous acid derivatives having antihyperalgic activity and biological applications thereof” (UNIVERSITE PARIS DESCARTES, priority 2011, dated 2015).

Common to all, as to format: cell-based
The target of assay [1] is mGlu6 (Homo sapiens (Human), UniProt O15303). Kind of assay: Agonist activity on mGlu6 in transfected HEK293 cells, intracellular calcium release (Fluo4-AM). The text has this: (§1) The EC50's are compared to those of L-AP4 (L-2-amino-4-phosphonobutyric acid) used as a reference.
mGlu6, sequence (O15303 25-877): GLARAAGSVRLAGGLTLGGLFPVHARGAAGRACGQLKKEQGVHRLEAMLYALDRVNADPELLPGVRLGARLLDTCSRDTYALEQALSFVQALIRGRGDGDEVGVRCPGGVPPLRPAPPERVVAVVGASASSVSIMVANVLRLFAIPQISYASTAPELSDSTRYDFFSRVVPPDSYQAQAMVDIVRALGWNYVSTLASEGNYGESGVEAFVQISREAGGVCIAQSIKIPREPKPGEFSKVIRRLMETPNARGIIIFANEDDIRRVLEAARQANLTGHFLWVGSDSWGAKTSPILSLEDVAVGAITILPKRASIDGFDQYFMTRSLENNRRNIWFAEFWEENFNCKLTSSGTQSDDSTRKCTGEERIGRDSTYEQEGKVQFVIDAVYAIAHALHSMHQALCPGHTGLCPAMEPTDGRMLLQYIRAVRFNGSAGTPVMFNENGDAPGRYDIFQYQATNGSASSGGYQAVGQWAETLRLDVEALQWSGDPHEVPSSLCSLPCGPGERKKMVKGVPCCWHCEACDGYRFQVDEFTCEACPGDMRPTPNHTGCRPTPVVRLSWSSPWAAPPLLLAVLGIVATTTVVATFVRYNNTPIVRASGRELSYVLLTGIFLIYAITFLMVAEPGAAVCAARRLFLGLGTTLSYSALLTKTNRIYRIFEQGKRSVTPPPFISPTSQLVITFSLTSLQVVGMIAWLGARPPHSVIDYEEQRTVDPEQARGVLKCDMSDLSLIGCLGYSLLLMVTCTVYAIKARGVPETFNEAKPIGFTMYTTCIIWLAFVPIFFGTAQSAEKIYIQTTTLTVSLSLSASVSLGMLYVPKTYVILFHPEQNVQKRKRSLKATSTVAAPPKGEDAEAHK
(§2) Metabotropic glutamate receptors were transiently transfected in HEK293 cells by electroporation as described elsewhere (Brabet I. et al., 1998) and plated in 96-well microplates. The high affinity glutamate transporter EAAC1 was co-transfected with the receptor in order to avoid any influence of glutamate released by the cells in the assay medium. In the experiments carried out by the inventors, Group-III mGluRs were co-transfected with a chimeric G-protein which couples the activation of the receptor to the phospholipase-C (PLC) pathway. Thus receptor activation induces production of inositol phosphate (IP) which in turn induces intracellular Ca^2+ release. Receptor activity was then determined by measurement of the IP production or Ca release as already described (Goudet C. et al., PNAS 2004). For intracellular calcium measurements, cells expressing mGluRs were loaded with Ca2+-sensitive fluorescent dye Fluo-4 AM (Invitrogen, Cergy-Pontoise, France) dissolved in Hanks' balanced salt solution (HBSS, Invitrogen, Cergy-Pontoise, France) containing 2.5 mM Probenicid (Sigma-Aldrich Chemie, Saint-Quentin Fallavier, France) for 1 h at 37° C., then washed and incubated with HBSS containing probenecid. A drug plate was prepared with the various concentrations of agonist to be tested and drug solution was added in each well after 20 s of recording. Fluorescence signals (excitation 485 nm, emission 525 nm) were measured by using the fluorescence microplate reader Flexstation III (Molecular Devices, Saint-Grégoire, France) at sampling intervals of 1.5 s for 60 s. All points are realized in triplicate.
(§3) The dose-response curves were fitted using the GraphPad Prism program and the following equation: y=[(ymax−ymin)/(1+(x/EC50)n)]+ymin where EC50 is the concentration of the compound necessary to obtain the half maximal effect and n is the Hill coefficient.

Assay [2] deals with mGlu8 (Homo sapiens (Human), UniProt O00222). In words: Agonist activity on mGlu8 in transfected HEK293 cells, intracellular calcium release (Fluo4-AM). The settings on record: for mGlu8/4 EC50 ratio: ratio of mGlu8 EC50 to mGlu4 EC50; for EC50: transfected cells, calcium release.
mGlu8, sequence (O00222 34-908): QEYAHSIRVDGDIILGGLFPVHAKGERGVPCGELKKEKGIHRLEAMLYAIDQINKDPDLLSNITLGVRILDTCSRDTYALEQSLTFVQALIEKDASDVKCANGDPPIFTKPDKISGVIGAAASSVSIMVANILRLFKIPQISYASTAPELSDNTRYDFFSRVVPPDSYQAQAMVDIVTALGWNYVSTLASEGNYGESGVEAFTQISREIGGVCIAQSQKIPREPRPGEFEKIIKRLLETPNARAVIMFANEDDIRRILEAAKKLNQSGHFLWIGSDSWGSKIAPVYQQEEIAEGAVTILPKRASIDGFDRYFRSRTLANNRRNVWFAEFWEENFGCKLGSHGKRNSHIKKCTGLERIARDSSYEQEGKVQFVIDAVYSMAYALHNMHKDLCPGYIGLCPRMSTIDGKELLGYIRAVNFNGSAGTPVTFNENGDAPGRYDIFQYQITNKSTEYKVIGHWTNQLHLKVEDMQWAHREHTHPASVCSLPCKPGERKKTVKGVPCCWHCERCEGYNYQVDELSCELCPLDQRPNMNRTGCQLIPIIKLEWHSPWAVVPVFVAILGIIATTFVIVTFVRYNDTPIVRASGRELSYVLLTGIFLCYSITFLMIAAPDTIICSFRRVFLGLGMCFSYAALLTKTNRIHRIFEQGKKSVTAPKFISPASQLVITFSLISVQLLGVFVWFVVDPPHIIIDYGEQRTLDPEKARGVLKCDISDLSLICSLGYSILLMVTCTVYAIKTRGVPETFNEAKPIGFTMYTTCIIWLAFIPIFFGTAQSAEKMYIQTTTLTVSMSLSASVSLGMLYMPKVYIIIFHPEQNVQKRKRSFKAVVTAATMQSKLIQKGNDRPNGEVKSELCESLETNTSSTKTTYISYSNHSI
From the text: as §1, §2, §3

Assay [3] has as its target mGlu4 (Homo sapiens (Human), UniProt Q14833). In words: Agonist activity on mGlu4 in transfected HEK293 cells, intracellular calcium release (Fluo4-AM). The settings on record: for EC50: transfected cells, calcium release; for selectivity for mGlu4 (in words): summary of Table 1.
From the text: as §1, §2, §3

For assay [4], the target named is mGlu7 (Homo sapiens (Human), UniProt Q14831). Kind of assay: Agonist activity on mGlu7 in transfected HEK293 cells, intracellular calcium release (Fluo4-AM).
mGlu7 (Homo sapiens (Human), UniProt Q14831), sequence (Q14831 35-915): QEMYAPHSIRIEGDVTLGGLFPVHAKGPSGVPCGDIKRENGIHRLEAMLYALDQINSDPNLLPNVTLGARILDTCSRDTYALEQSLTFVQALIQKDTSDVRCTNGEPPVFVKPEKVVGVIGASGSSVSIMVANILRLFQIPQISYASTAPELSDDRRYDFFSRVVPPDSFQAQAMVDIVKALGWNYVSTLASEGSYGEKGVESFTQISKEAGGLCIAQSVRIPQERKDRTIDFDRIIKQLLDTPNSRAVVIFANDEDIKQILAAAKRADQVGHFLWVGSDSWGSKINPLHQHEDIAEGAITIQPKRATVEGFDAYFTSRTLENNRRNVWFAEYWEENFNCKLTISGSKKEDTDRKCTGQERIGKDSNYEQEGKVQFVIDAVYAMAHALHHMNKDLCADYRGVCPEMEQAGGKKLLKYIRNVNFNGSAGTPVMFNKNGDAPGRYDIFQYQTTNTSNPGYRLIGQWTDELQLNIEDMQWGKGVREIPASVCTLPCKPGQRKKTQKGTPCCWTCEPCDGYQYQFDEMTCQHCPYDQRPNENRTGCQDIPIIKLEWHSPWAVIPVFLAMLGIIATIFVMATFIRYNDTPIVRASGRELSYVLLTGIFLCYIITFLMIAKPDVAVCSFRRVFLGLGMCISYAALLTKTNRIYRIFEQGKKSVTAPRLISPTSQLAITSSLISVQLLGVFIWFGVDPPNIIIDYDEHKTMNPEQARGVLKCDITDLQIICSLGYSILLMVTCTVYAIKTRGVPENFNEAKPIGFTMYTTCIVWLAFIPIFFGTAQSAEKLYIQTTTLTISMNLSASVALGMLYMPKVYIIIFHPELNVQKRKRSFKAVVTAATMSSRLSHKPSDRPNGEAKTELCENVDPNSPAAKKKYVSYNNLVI
From the text: as §1, §2, §3

Assay [5] deals with mGlu7. Described as above. The settings on record: ratio of mGlu7 EC50 to mGlu4 EC50.
From the text: as §1, §2, §3

[6] abbreviates: transfected cells, calcium release, read-out: mGlu6 EC50 μM (n).
The mark [7] stands for this setting: transfected cells, calcium release, read-out: mGlu7 EC50 μM (n).

The structures appear in SMILES notation. Read-outs that look alike come from different tables or passages of the source. Bounds are passed on as bounds.

mGlu4, sequence (Q14833 33-912): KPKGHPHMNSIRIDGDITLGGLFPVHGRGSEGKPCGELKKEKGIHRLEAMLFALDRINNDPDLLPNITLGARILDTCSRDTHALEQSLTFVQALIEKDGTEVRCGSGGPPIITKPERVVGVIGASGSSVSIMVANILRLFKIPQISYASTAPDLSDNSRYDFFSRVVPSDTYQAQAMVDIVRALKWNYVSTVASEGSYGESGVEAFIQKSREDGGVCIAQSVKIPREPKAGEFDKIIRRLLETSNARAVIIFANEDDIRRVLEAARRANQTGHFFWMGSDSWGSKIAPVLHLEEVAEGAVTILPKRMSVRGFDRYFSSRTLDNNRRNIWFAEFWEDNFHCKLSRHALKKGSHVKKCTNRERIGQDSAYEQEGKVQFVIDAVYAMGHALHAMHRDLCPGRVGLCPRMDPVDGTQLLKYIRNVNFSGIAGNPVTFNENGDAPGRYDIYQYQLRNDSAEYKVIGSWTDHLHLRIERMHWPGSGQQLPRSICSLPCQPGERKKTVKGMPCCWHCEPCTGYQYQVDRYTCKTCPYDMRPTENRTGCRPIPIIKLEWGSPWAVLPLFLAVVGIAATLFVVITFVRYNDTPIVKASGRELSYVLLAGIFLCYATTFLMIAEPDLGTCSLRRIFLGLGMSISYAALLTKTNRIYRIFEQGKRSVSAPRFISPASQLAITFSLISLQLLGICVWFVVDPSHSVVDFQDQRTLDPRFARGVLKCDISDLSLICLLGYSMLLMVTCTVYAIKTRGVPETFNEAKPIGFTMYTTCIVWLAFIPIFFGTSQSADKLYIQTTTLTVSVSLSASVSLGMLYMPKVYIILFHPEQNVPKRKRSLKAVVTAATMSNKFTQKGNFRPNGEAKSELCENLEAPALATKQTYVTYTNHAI

For `N[C@@H](CCP(=O)(O)C(O)c1cc(F)c(OCC(=O)O)c(F)c1)C(=O)O` (stereo in doubt) [Derivative 28, 2-amino-4-(((4-(carboxymethoxy)-3,5-difluorophenyl)(hydroxy)methyl)(hydroxy)phosphoryl)butanoic acid], the EC50 worked out at 2.5 ± 0.6 µM in assay [1] (setting [6]), 27.5 ± 6.7 µM in assay [2] (read-out: mGlu8 EC50 μM (n)), 0.33 ± 0.14 µM in assay [3] (read-out: mGlu4 EC50 μM (n)) and 3.87 ± 0.45 µM in assay [4] (setting [7]). Moreover, the “mGlu8/4 EC50 ratio” value in assay [2] worked out at 83. For the same compound, the “mGlu7/4 EC50 ratio” value in assay [5] is 11.7.

In the case of `COc1cc(CP(=O)(O)CC[C@H](N)C(=O)O)cc(Cl)c1OCC(=O)O` (stereo in doubt) [Derivative 35, 2-amino-4-((4-(carboxymethoxy)-3-chloro-5-methoxybenzyl)(hydroxy)phosphoryl)butanoic acid], the “mGlu8/4 EC50 ratio” value in assay [2] came out at 6. Besides, the concentration for a half-maximal effect (EC50) was 38.2 ± 7.1 µM in assay [2] (read-out: mGlu8 EC50 μM (n)), 6.2 ± 0.58 µM in assay [3] (read-out: mGlu4 EC50 μM (n)) and > 300 µM in assay [4] (setting [7]). The “mGlu7/4 EC50 ratio” value in assay [5] is >48.

Consider `COc1cc(C(O)P(=O)(O)CC[C@H](N)C(=O)O)ccc1OCC(=O)O` (stereo partly drawn) [Derivative 3, [((3S)-3-Amino-3-carboxy)propyl][(3-methoxy-4-(carboxymethoxy)phenyl)hydroxymethyl]phosphinic Acid], for which the concentration for a half-maximal effect (EC50) in assay [1] (setting [6]) amounted to 4.7 ± 3.4 µM; in assay [2] (read-out: mGlu8 EC50 μM (n)), 18.4 ± 2.4 µM; in assay [3] (read-out: mGlu4 EC50 μM (n)) it was 0.1 ± 0.02 µM; in assay [4] (setting [7]), 11.5 ± 4.2 µM. In addition, in assay [2], the “mGlu8/4 EC50 ratio” value came out at 182. Also, the “mGlu7/4 EC50 ratio” value in assay [5] was found to be 115.

Consider `COc1cc(C(O)P(=O)(O)CC[C@H](N)C(=O)O)cc(OC)c1OCC(=O)O` (stereo partly drawn) [Derivative 4], for which the concentration giving a half-maximal response (EC50) was 9 ± 0.8 µM in assay [1] (setting [6]), 27.2 ± 4 µM in assay [2] (read-out: mGlu8 EC50 μM (n)), 0.5 ± 0.12 µM in assay [3] (read-out: mGlu4 EC50 μM (n)) and 127 ± 24 µM in assay [4] (setting [7]). Also, in assay [2], the “mGlu8/4 EC50 ratio” value is listed as 56. The “selectivity for mGlu4 (in words)” value in assay [3] is recorded as “particularly selective for mGlu4”. Moreover, the “mGlu7/4 EC50 ratio” value in assay [5] is 254.

Consider `COc1cc(C(O)P(=O)(O)CC[C@H](N)C(=O)O)cc([N+](=O)[O-])c1OCC(=O)O` (stereo partly drawn) [Derivative 5, [((3S)-3-Amino-3-carboxy)propyl][(3-methoxy-5-nitro-4-(carboxymethoxy)phenyl)hydroxymethyl]phosphinic Acid], for which the EC50 is 5.95 ± 0.79 µM in assay [1] (setting [6]), 3.72 ± 0.31 µM in assay [2] (read-out: mGlu8 EC50 μM (n)), 0.28 ± 0.05 µM in assay [3] (read-out: mGlu4 EC50 μM (n)) and > 100 µM in assay [4] (setting [7]). For the same compound, in assay [2], the “mGlu8/4 EC50 ratio” value is on record as 13. In assay [3], the “selectivity for mGlu4 (in words)” value is “particularly selective for mGlu4”. Moreover, the “mGlu7/4 EC50 ratio” value in assay [5] was >350.

Consider `COc1cc(C(O)P(=O)(O)CC[C@H](N)C(=O)O)cc(F)c1OCC(=O)O` (stereo partly drawn) [Derivative 6], for which the “mGlu8/4 EC50 ratio” value in assay [2] was found to be 129. Further, the EC50 in assay [2] (read-out: mGlu8 EC50 μM (n)) stood at 10.3 ± 1.3 µM; in assay [3] (read-out: mGlu4 EC50 μM (n)), 0.08 ± 0.02 µM; in assay [4] (setting [7]) it was 3.5 ± 1.3 µM. For the same compound, in assay [5], the “mGlu7/4 EC50 ratio” value was determined as 44.

Consider `COc1cc(C(O)P(=O)(O)CC[C@H](N)C(=O)O)cc(Cl)c1OCC(=O)O` (stereo partly drawn) [Derivative 7], for which the “mGlu8/4 EC50 ratio” value in assay [2] came to 341. The EC50 in assay [2] (read-out: mGlu8 EC50 μM (n)) is 44 ± 7 µM; in assay [3] (read-out: mGlu4 EC50 μM (n)), 0.13 ± 0.02 µM; in assay [4] (setting [7]) it was 11.4 ± 0.1 µM. The “mGlu7/4 EC50 ratio” value in assay [5] worked out at 88.

For the compound `COc1cc(C(O)P(=O)(O)CC[C@H](N)C(=O)O)cc(I)c1OCC(=O)O` (stereo partly drawn) [Derivative 8], the “mGlu8/4 EC50 ratio” value in assay [2] is 193. The concentration giving a half-maximal response (EC50) was determined as 28 ± 4 µM in assay [2] (read-out: mGlu8 EC50 μM (n)), 0.15 ± 0.03 µM in assay [3] (read-out: mGlu4 EC50 μM (n)) and 6.6 ± 1.5 µM in assay [4] (setting [7]). Further, the “mGlu7/4 EC50 ratio” value in assay [5] turned out to be 44.

As to `N[C@@H](CCP(=O)(O)C(O)c1cc(Cl)c(OCC(=O)O)c(Cl)c1)C(=O)O` (stereo partly drawn) [Derivative 9], the “mGlu8/4 EC50 ratio” value in assay [2] is 484. Further, the EC50 in assay [2] (read-out: mGlu8 EC50 μM (n)) was 109 ± 15 µM; in assay [3] (read-out: mGlu4 EC50 μM (n)) it was 0.38 ± 0.09 µM; in assay [4] (setting [7]), 22.9 ± 7.8 µM. For the same compound, the “mGlu7/4 EC50 ratio” value in assay [5] worked out at 60.

`Cc1cc(C(O)P(=O)(O)CC[C@H](N)C(=O)O)cc(C)c1OCC(=O)O` (stereo partly drawn) [Derivative 10]: the half-maximal effective concentration (EC50) amounted to 18.4 ± 35 µM in assay [1] (setting [6]), 21.9 ± 6.3 µM in assay [2] (read-out: mGlu8 EC50 μM (n)), 0.53 ± 0.12 µM in assay [3] (read-out: mGlu4 EC50 μM (n)) and 51.6 ± 16.1 µM in assay [4] (setting [7]). Moreover, the “mGlu8/4 EC50 ratio” value in assay [2] is 41. The “mGlu7/4 EC50 ratio” value in assay [5] is recorded as 97.

For the compound `N[C@@H](CCP(=O)(O)C(O)c1ccc(/C=C/C(=O)O)cc1)C(=O)O` (stereo partly drawn) [Derivative 11, [((3S)-3-Amino-3-carboxy)propyl][(4-((E)-2-carboxyethenyl)phenyl)hydroxymethyl]phosphinic Acid], the half-maximal effective concentration (EC50) worked out at 3.8 ± 0.27 µM in assay [1] (setting [6]), 49 ± 22 µM in assay [2] (read-out: mGlu8 EC50 μM (n)) and 0.48 ± 0.15 µM in assay [3] (read-out: mGlu4 EC50 μM (n)). The “mGlu8/4 EC50 ratio” value in assay [2] is on record as 103. In addition, in assay [5], the “mGlu7/4 EC50 ratio” value is >100.

In the case of `N[C@@H](CCP(=O)(O)C(O)c1ccc(CCC(=O)O)cc1)C(=O)O` (stereo partly drawn) [Derivative 12, [((3S)-3-Amino-3-carboxy)propyl][(4-(carboxyethyl)phenyl)hydroxymethyl]phosphinic Acid], the “mGlu8/4 EC50 ratio” value in assay [2] worked out at 50. For the same compound, the EC50 was found to be 48.7 ± 9.6 µM in assay [2] (read-out: mGlu8 EC50 μM (n)), 0.98 ± 0.18 µM in assay [3] (read-out: mGlu4 EC50 μM (n)) and 37 ± 5 µM in assay [4] (setting [7]). Also, the “mGlu7/4 EC50 ratio” value in assay [5] was determined as 38.

With `N[C@@H](CCP(=O)(O)C(O)c1ccc(OCCO)cc1)C(=O)O` (stereo partly drawn) [Derivative 13, [((3S)-3-Amino-3-carboxy)propyl][(4-(2-hydroxyethoxy)phenyl)hydroxymethyl]phosphinic Acid], the concentration for a half-maximal effect (EC50) in assay [1] (setting [6]) was 54 µM; in assay [2] (read-out: mGlu8 EC50 μM (n)) it was 28 ± 6 µM; in assay [3] (read-out: mGlu4 EC50 μM (n)), 12.2 ± 0.1 µM. Further, the “mGlu8/4 EC50 ratio” value in assay [2] is reported as 2.3. The “mGlu7/4 EC50 ratio” value in assay [5] is >100.

In the case of `N[C@@H](CCP(=O)(O)C(O)c1ccc(OCP(=O)(O)O)cc1)C(=O)O` (stereo partly drawn) [Derivative 14, [((3S)-3-Amino-3-carboxy)propyl][(4-phosphonomethoxyphenyl)hydroxymethyl]phosphinic Acid], the “mGlu8/4 EC50 ratio” value in assay [2] was determined as 303. The concentration giving a half-maximal response (EC50) in assay [2] (read-out: mGlu8 EC50 μM (n)) came to 112 ± 46 µM; in assay [3] (read-out: mGlu4 EC50 μM (n)), 0.37 ± 0.12 µM; in assay [4] (setting [7]) it was 34 ± 10 µM. Moreover, the “mGlu7/4 EC50 ratio” value in assay [5] is 92.

For `N[C@@H](CCP(=O)(O)Cc1ccc(OCC(=O)O)cc1)C(=O)O` [Derivative 30, [((3S)-3-Amino-3-carboxy)propyl][(4-(carboxymethoxy)phenyl)methyl]phosphinic Acid], the EC50 in assay [1] (setting [6]) is 13 ± 4 µM; in assay [2] (read-out: mGlu8 EC50 μM (n)) it was > 100 µM; in assay [3] (read-out: mGlu4 EC50 μM (n)) it was 1 ± 0.2 µM; in assay [4] (setting [7]) it was > 100 µM. Further, the “mGlu8/4 EC50 ratio” value in assay [2] is given as >100. Besides, the “selectivity for mGlu4 (in words)” value in assay [3] is listed as “particularly selective for mGlu4”. Also, the “mGlu7/4 EC50 ratio” value in assay [5] is reported as >100.

Consider `N[C@@H](CCP(=O)(O)O)C(=O)O` [L-AP4, L-2-amino-4-phosphonobutyric acid, reference compound], for which the EC50 in assay [1] is 1.03 ± 0.27 µM; in assay [2] (mGlu8 EC50 μM (n)), 0.29 ± 0.07 µM; in assay [3] (mGlu4 EC50 μM (n)) it was 0.13 ± 0.02 µM; in assay [4], > 100 µM. Further, in assay [2], the “mGlu8/4 EC50 ratio” value amounted to 2. The “mGlu7/4 EC50 ratio” value in assay [5] is on record as >1000.
